Patent US20020193422A1, “Anthranilamides and methods of their use” (priority 2001, published 2002)

Molecular target: T1, Human Kv1.5 channels (Homo sapiens, UniProt P22460)
T1 construct: expressed in transfected cells; host or cells: Xenopus laevis oocytes (injected with in vitro synthesized Kv1.5 coding RNA)
Test: Kv1.5 currents in Xenopus oocytes, two-microelectrode voltage clamp
Type: cell-based
Conditions: human Kv1.5 expressed in Xenopus laevis oocytes; 500 ms voltage jumps to 0 mV and 40 mV; room temperature; percentage inhibition of control current fitted with Hill equation
Protocol: Human Kv1.5 channels were expressed in xenopus oocytes. For this purpose, oocytes from Xenopus laevis were first isolated and defolliculated. Kv1.5 coding RNA synthesized in vitro was then injected into these oocytes. After Kv1.5 protein expression for 1-7 days, Kv1.5 currents were measured in the oocytes using the two-microelectrode voltage clamp technique. The Kv1.5 channels were activated here with 500 ms voltage jumps to 0 mV and 40 mV. The bath was flushed with a solution of the following: NaCl 96 mM, KCl 2 mM, CaCl2 1.8 mM, MgCl2 1 mM, HEPES 5 mM (titrated with NaOH to pH 7.4). These experiments were carried out at room temperature. The following were used for data collection and analysis: Geneclamp amplifier (Axon Instruments, Foster City, USA) and MacLab D/A converter and software (ADInstruments, Castle Hill, Australia). The compounds according to the invention were tested by adding them to the bath solution in different concentrations. The effects of the compounds were calculated as percentage inhibition of the Kv1.5 control current which was obtained when no compound was added to the solution. The data were then extrapolated using the Hill equation, in order to determine the inhibitory concentrations (IC50) for the respective compounds.

T1 sequence (P22460 whole entry): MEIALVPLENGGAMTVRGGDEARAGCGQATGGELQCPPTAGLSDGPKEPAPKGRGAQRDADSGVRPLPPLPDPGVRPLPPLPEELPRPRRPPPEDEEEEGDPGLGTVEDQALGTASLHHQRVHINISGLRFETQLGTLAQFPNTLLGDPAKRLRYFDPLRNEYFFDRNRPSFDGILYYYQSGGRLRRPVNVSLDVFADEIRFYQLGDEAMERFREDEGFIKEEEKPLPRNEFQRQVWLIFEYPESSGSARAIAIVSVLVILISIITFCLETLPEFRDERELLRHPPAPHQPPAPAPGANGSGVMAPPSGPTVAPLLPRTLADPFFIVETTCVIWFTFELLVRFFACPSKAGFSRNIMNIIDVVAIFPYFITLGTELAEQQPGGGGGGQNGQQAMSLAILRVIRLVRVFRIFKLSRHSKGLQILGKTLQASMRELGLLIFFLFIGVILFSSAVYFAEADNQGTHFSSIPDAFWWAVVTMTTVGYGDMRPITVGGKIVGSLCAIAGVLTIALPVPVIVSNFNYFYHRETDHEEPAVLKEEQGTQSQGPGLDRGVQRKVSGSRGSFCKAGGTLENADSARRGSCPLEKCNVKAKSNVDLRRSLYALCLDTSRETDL

Row | IC50 [µM] | Structure (SMILES)
1 | 3 | COc1ccc(NS(=O)(=O)c2cccc(C(F)(F)F)c2)c(C(=O)NCCc2cccs2)c1 [Example 1]
2 | 4.1 | COc1ccc(S(=O)(=O)Nc2cc(F)ccc2C(=O)N(C)Cc2ccccc2)cc1 [Example 2]
3 | 2.1 | COc1ccc(NS(=O)(=O)c2ccc(C)cc2)c(C(=O)NCc2ccc(C)o2)c1 [Example 3]
4 | 2.4 | Cc1cccc(NS(=O)(=O)c2ccc(Cl)cc2)c1C(=O)NCc1ccc(Cl)cc1 [Example 4]
5 | 3.2 | CCN(Cc1ccccc1)C(=O)c1ccccc1NS(=O)(=O)c1ccc(Cl)cc1 [Example 5]
6 | 4.1 | Cc1ccc(S(=O)(=O)Nc2ccccc2C(=O)NCc2ccccc2)cc1 [Example 6]
7 | 5 | CCN(Cc1ccccc1)C(=O)c1ccccc1NS(=O)(=O)c1ccc(C)cc1 [Example 7]
8 | 4.6 | Cc1ccc(S(=O)(=O)Nc2ccccc2C(=O)N(C)CCc2ccccc2)cc1 [Example 8]
9 | 4.7 | CCN(Cc1ccccc1)C(=O)c1ccccc1NS(=O)(=O)c1ccccc1 [Example 9]
10 | 3.8 | O=C(NCCc1ccccc1)c1ccccc1NS(=O)(=O)c1ccccc1 [Example 10]
11 | 3.7 | CN(CCc1ccccc1)C(=O)c1ccccc1NS(=O)(=O)c1ccccc1 [Example 11]
12 | 3.6 | Cc1ccc(S(=O)(=O)Nc2ccc(F)cc2C(=O)NCc2ccccc2)cc1 [Example 12]
13 | 3.7 | CCN(Cc1ccccc1)C(=O)c1cc(F)ccc1NS(=O)(=O)c1ccc(C)cc1 [Example 13]
14 | 4.1 | Cc1ccc(S(=O)(=O)Nc2ccc(F)cc2C(=O)NCCc2ccccc2)cc1 [Example 14]
15 | 4.5 | COc1ccc(S(=O)(=O)Nc2ccc(OC)cc2C(=O)N(C)Cc2ccccc2)cc1 [Example 15]
16 | 3.3 | COc1ccc(CNC(=O)c2cc(OC)ccc2NS(=O)(=O)c2ccc(Cl)cc2)cc1 [Example 16]
17 | 1.6 | CCN(C(=O)c1cc(C)ccc1NS(=O)(=O)c1ccc(C)cc1)c1ccccc1 [Example 17]
18 | 3.5 | Cc1ccc(S(=O)(=O)Nc2ccccc2C(=O)NCc2cccc(C)c2)cc1 [Example 18]
19 | 2.6 | COc1ccc(NS(=O)(=O)c2ccc(C)cc2)c(C(=O)NCCc2cccs2)c1 [Example 19]
20 | 3.8 | Cc1ccc(CNC(=O)c2c(C)cccc2NS(=O)(=O)c2ccc(C)c(Cl)c2)o1 [Example 20]
21 | 6.1 | CCCCS(=O)(=O)Nc1ccc(C)cc1C(=O)NCc1ccc(Cl)cc1 [Example 21]
22 | 6 | O=C(NCc1ccccc1)c1cc(Cl)ccc1NS(=O)(=O)c1ccc(Cl)cc1 [Example 22]
23 | 6.9 | COc1ccc(NS(=O)(=O)c2cccc3cccnc23)c(C(=O)NCCc2ccc(OC)c(OC)c2)c1 [Example 23]
24 | 4.6 | CN(Cc1ccccc1)C(=O)c1ccccc1NS(=O)(=O)c1cccc2cccnc12 [Example 24]
25 | 4.2 | CCc1ccc(S(=O)(=O)Nc2ccccc2C(=O)N(CC)c2ccccc2)cc1 [Example 25]
26 | 5.6 | CCN(C(=O)c1ccccc1NS(=O)(=O)c1ccc2ccccc2c1)c1ccccc1 [Example 26]
27 | 3 | CCN(C(=O)c1ccccc1NS(=O)(=O)c1ccc(C)cc1OC)c1ccccc1 [Example 27]
28 | 1.2 | CCN(C(=O)c1ccccc1NS(=O)(=O)c1cccc2cccnc12)c1ccccc1 [Example 28]
29 | 1.9 | CCN(C(=O)c1ccccc1NS(=O)(=O)c1cccc2ccccc12)c1ccccc1 [Example 29]
